Data published in patent publication US20220362254A1, “METHODS FOR REPROGRAMMING CANCER CELLS” (Thomas Jefferson University, priority 2019, published 2022).

Experiments:
[1] = tested on: GATA3; test: CAA: recruitment of GATA3 to nascent DNA in T cells (Th2); assay type: cell-based; conditions: Th2 pathway, 10 μM GSKJ4 for 5 hr
Experimental: (§1) FIG. 6 illustrates that fast accumulation of post-replicative H3K27me3 leads to decreased recruitment of lineage-determining TFs to DNA during differentiation of T cells. Naive T cells were primed for 12 hr and stimulated to Th1 (left, middle) or Th2 (right) pathways. Cells were untreated or treated with 10 μM of GSKJ4 for 5 hr, labeled with EdU for 15 min (left) or pulse-labeled for 1 hr (middle and right). CAA was performed with antibodies to H3K27me3 (left), T-bet (middle) and GATA3 (right).
(§2) Chromatin assembly assay: Cells were grown on chamber slides, pulse-labeled with 5 μM EdU and fixed at room temperature with 4% formaldehyde in PBS for 15 min, washed with PBS, and permeabilized with 0.3% Triton for 15 min. Cells were subjected to Click-iT reaction with biotin-azide for 30 min. […] The results of CAA experiments shown in FIG. 1A were quantified by counting the number of PLA signals per EdU-labeled nuclei in 50 cells of each of the three independent experiments. The nature of the results in the rest of the figures alleviated the need to quantify the results of these assays.
(§3) New approaches to study the fate of chromatic-associated proteins following DNA replication were developed. […] Cells can be then examined for specificity of interactions (e.g. specific PLA signals are detected only in EdU-labeled nuclei), and by assessing tissue specificity using relevant protein markers. […]

[2] = tested on: C/EBPa; test: CAA: recruitment of C/EBPa to nascent DNA in CD34+ HPCs; assay type: cell-based, human; conditions: CD34+ HPCs induced with G-CSF 12 hr
Source text: (§4) FIGS. 5A-5B illustrate that fast accumulation of post-replicative H3K27me3 leads to decreased recruitment of lineage-determining TFs to DNA. In FIG. 5A, CD34^+ cells were induced toward myeloid differentiation with G-CSF (left) or M-CSF (middle), or erythroid differentiation with EPO (right) for 12 hr. During the induction period cells were left untreated (upper panels) or treated with the GSKJ4 inhibitor of the H3K27me3 de-methylases (KDMs) UTX and JMJD3 (lower panels). DNA was pulse-labeled with EdU for 15 min and chased to 1 hr. CAA was performed between nascent DNA (biotin) and H3K27me3 (left columns) or (in the right columns) C/EBPa (left), PU.1 (middle) or GATA-1 (right). […] In FIG. 5B, quantification of the results of CAA experiments was determined by counting the number of PLA signals per EdU-labeled nuclei in 50 cells/each of the three independent experiments.
(§5) Chromatin assembly assay: Cells were grown on chamber slides, pulse-labeled with 5 μM EdU and fixed at room temperature with 4% formaldehyde in PBS for 15 min, washed with PBS, and permeabilized with 0.3% Triton for 15 min. […] The results of CAA experiments shown in FIG. 1A were quantified by counting the number of PLA signals per EdU-labeled nuclei in 50 cells of each of the three independent experiments. The nature of the results in the rest of the figures alleviated the need to quantify the results of these assays. […]

[3] = tested on: H3K27me3; test: Chromatin assembly assay (CAA): H3K27me3 on nascent DNA of CD34+ HPCs; assay type: cell-based, human; conditions: CD34+ HPCs exposed to GSKJ4 during 12 hr induction; EdU 15 min, chased to 1 hr
Source text: as §4, §5

[4] = tested on: PU.1; test: CAA: recruitment of PU.1 to nascent DNA in CD34+ HPCs; assay type: cell-based, human; conditions: CD34+ HPCs induced with M-CSF 12 hr
Source text: as §4, §5

[5] = tested on: GATA-1; test: CAA: recruitment of GATA-1 to nascent DNA in CD34+ HPCs; assay type: cell-based, human; conditions: CD34+ HPCs induced with EPO 12 hr
Source text: as §4, §5

[6] = tested on: T-bet; test: CAA: recruitment of T-bet to nascent DNA in T cells (Th1); assay type: cell-based; conditions: Th1 pathway, 10 μM GSKJ4 for 5 hr
Experimental: as §1, §2, §3

[7] = tested on: HH, HUT78, Jurkat E6.1 and CCRF-HSB-2 cells; test: Cell viability screen of TCL cells (flow cytometry with Sytox Green); assay type: cell-based, human; conditions: HUT78, Jurkat E6.1, CCRF-HSB-2, with and without 1 μM EPZ 24 hrs, then 10 days
Experimental: (§6) Sezary syndrome (SS) cells HH (FIG. 12A) and HUT78 (FIG. 12B), and T-cell acute lymphoblastic leukemia (T-ALL) cells Jurkat E6.1 (FIG. 12C) and CCRF-HSB-2 (FIG. 12D) were grown with and without 1 μM EPZ for 24 hrs. Indicated small molecule compounds were added in indicated concentrations and cells were grown for an additional 10 days.
To test the idea that restoring the ability of cells to de-condense nascent chromatin may enable reprogramming of TCLs, a two-step induction was devised: Cells were first treated with the inhibitors of the EZH1/2 HMTs, and then induced with small molecule ligands known to activate specific TFs. […] A library of small molecules was compiled that included ligands for nuclear hormone receptors, cytokines, ligands for GPCRs, and small molecules that are used to reprogram mature cells into pluripotent cells (FIG. 11). Since different ligands may induce reprogramming of leukemic cells into different lineages, it was not possible to use specific differentiation markers at initial stages of these screens, and therefore cell viability was used as a readout for the initial screens. The earliest effects on cell viability were observed after 5 days of treatment, and therefore screens for cell viability (flow cytometry with Sytox green) were performed at days 8-11. […]

[8] = tested on: AML cell lines THP-1, K562 and KG-1a; test: Cell viability of AML cell lines (flow cytometry with Sytox Green); assay type: cell-based, human; conditions: THP-1, K562, KG-1a; performed as in FIG. 12
Experimental: as §6
The assays were performed as described in FIG. 12.
Similar experiments were performed with the AML cell lines THP-1, K562 and KG-1a.

[9] = tested on: MEF2; test: CAA: binding of MEF2 to nascent chromatin in CCRF-HSB-2 cells; assay type: cell-based, human; conditions: 5 μM ISX9 6 hr, with or without 0.5 μM EPZ pre-treatment
Experimental: (§7) FIGS. 15A-15C illustrate the effect of EPZ and small molecule ligand treatment on TF binding. […] Cells were immunostained with antibodies to LXRa (left), and GR (right). Nuclei stained by DAPI are shown in the lower panel. […] In FIG. 15C, T-ALL CCRF-HSB-2 cells were untreated or treated for 6 hr with 5 μM of ISX9, or pre-treated with 0.5 μM EPZ and then treated for 6 hr with 5 μM of ISX9. In FIG. 15B and FIG. 15C, DNA was labeled with EdU for 15 min. In FIG. 15B, CAA was performed with antibodies to H3K27me3 (left), LXRa (middle), and GR (right). In FIG. 15C, with antibody to MEF-2. PLA signals are shown in the lower panel. The schemes above show the state of condensation of nascent chromatin.
as §2

[10] = tested on: THP-1 Luc+ cells; test: THP-1 Luc+ xenograft AML model, bioluminescence; assay type: in vivo; conditions: NRG mice, THP-1 Luc+ 1×10^6/mouse; 30 days post injection
Source text: NRG were mice injected with THP-1 Luc+ cells, an especially aggressive AML line (1×10^6/mouse). 14 days post-injection, mice were imaged and left untreated (Controls), treated with EPZ alone, Dexa alone and ISX9 alone for 16 days, or pre-treated (2 days) with EPZ and co-treated with Dexa and EPZ (Dexa+EPZ) or with ISX9 and EPZ (ISX9+EPZ) for 14 additional days.

[11] = tested on: all tested leukemias; test: In vitro assays with cultured leukemic cells of various leukemia types; assay type: cell-based; conditions: cell lines of various leukemia types
Experimental: Leukemic cells from patients can be established in short-term culture for about 10 days. During this time, these cells are screened for the best possible reprogramming agent, which causes reprogramming (e.g. differentiation), loss of cell viability and apoptosis. […] These assays include cell viability, apoptosis induction, and examining cell differentiation markers. Thus, within 7-10 days, the most efficient molecules are determined, which induce reprogramming of leukemic cells, which leads to inhibition of cell viability and induction of apoptosis in individual patients. Indeed, similar studies using a number of different cell lines of various leukemia types have seen differences in responses to various reprogramming agents (FIG. 14).

[12] = tested on: HL-60 cells; conditions: an APL cell line; cited from earlier work
[13] = tested on: H3K27me3; test: CAA: H3K27me3 on nascent chromatin of TCL cells (HUT78); assay type: cell-based, human
Experimental: FIG. 10B: HUT78 cells were induced with 0.2 μM of RXR for the indicated times. Cells were labeled with EdU for 15 min, and CAA was performed between Biotin (EdU) and H3K27me3 antibody. PLA only is shown in the lower panel.
FIGS. 15A-15C illustrate the effect of EPZ and small molecule ligand treatment on TF binding. […] Cells were immunostained with antibodies to LXRa (left), and GR (right). Nuclei stained by DAPI are shown in the lower panel. […] In FIG. 15C, T-ALL CCRF-HSB-2 cells were untreated or treated for 6 hr with 5 μM of ISX9, or pre-treated with 0.5 μM EPZ and then treated for 6 hr with 5 μM of ISX9. In FIG. 15B and FIG. 15C, DNA was labeled with EdU for 15 min. […]
Chromatin assembly assay: Cells were grown on chamber slides, pulse-labeled with 5 μM EdU and fixed at room temperature with 4% formaldehyde in PBS for 15 min, washed with PBS, and permeabilized with 0.3% Triton for 15 min. […] The results of CAA experiments shown in FIG. 1A were quantified by counting the number of PLA signals per EdU-labeled nuclei in 50 cells of each of the three independent experiments. The nature of the results in the rest of the figures alleviated the need to quantify the results of these assays.
New approaches to study the fate of chromatic-associated proteins following DNA replication were developed. […] Reliable pulse-chase EdU labeling in cells can be detected from 3-5 min to several hours. […]

[14] = tested on: GR target genes; test: qRT-PCR of differentiation-associated (GR target) genes in THP-1, SEM and HH cells; assay type: cell-based, human; conditions: 24 hr
Experimental: Graphs show induction of transcription of GR target genes. […] Graphs show induction of transcription of GR target genes. FIG. 17C The T-ALL HH cells were untreated (Untr) or treated with 1 μM EPZ for 24 hr. […] Bottom graph, cells were then treated with 1 μM of ISX-9 for 72 hr or with combinations of EPZ and ISX9. Analysis by qRT-PCR.
Gene expression analysis by RT-qPCR: Total RNA was isolated directly from freshly collected hESCs with TRIzol and for mESCs with High Pure RNA Isolation Kit. cDNA was synthesized by using 1 μg total RNA in a 20 μL reaction with Superscript III and oligo (dT) for hESC or random hexamers (Life Tech) for mECS. After reverse transcription was complete, one microliter of RNase H was added to each reaction tube, and the tubes were incubated for 20 min at 37° C. before proceeding to PCR. Real-time PCR was carried out on a 7500 Real-Time PCR System using the 2× Power SYBR green PCR master mix. GAPDH was used as an internal control. All PCR products were checked by running an agarose gel for the first time and by doing dissociation assay every time to exclude the possibility of multiple products. PCR analyses were conducted in triplicate for each sample.
Graphs show induction of transcription of GR target genes. […] Graphs show induction of transcription of GR target genes. […]

[15] = target: EZH2 (Homo sapiens, UniProt Q15910); conditions: also inhibits other methyltransferases; cited from earlier work
[16] = tested on: LXRa; test: CAA: binding of LXRa to nascent DNA in HUT78 cells; assay type: cell-based, human; conditions: 6 hr 1 μM GW3965, no EPZ
Experimental: as §7, §2

[17] = tested on: LXRa; test: Immunostaining of LXRa localisation in HUT78 cells; assay type: cell-based, human; conditions: 1 μM GW3965, untreated: mostly in the cytoplasm
Experimental: as §7

Chain of EZH2 (Q15910 whole entry): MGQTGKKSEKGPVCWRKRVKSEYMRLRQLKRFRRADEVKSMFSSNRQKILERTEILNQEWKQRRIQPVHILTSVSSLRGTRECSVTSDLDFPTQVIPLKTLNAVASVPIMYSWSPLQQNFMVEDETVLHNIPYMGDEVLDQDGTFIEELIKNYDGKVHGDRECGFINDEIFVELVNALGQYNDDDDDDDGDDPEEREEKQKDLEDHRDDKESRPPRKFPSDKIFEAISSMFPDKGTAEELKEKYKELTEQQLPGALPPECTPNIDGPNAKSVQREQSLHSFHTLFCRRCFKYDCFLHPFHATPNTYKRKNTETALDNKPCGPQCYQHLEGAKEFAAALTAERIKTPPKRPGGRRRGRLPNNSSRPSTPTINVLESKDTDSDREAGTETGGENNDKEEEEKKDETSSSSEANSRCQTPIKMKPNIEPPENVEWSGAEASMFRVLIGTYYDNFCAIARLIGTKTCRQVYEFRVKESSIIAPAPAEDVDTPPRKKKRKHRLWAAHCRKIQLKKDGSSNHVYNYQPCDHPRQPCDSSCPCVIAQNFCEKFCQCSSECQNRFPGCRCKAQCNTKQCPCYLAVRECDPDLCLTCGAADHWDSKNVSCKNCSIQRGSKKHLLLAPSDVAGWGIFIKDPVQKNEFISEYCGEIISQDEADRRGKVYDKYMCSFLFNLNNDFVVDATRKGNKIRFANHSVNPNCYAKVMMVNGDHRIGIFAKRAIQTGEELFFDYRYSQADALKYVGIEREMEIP
Chain of EZH2 (O75530 whole entry partner): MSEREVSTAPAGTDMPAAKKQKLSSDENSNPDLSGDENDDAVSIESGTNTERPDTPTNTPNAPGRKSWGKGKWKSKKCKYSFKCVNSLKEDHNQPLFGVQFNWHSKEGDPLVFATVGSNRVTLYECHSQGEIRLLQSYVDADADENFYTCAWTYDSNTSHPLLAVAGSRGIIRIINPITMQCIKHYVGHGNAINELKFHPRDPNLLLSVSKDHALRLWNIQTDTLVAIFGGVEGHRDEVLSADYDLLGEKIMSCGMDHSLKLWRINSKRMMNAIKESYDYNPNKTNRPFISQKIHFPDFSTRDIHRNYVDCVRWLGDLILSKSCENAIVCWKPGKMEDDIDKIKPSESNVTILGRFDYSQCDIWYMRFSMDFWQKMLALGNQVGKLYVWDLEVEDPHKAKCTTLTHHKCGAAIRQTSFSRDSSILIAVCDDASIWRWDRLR
Chain of EZH2 (Q15022 whole entry partner): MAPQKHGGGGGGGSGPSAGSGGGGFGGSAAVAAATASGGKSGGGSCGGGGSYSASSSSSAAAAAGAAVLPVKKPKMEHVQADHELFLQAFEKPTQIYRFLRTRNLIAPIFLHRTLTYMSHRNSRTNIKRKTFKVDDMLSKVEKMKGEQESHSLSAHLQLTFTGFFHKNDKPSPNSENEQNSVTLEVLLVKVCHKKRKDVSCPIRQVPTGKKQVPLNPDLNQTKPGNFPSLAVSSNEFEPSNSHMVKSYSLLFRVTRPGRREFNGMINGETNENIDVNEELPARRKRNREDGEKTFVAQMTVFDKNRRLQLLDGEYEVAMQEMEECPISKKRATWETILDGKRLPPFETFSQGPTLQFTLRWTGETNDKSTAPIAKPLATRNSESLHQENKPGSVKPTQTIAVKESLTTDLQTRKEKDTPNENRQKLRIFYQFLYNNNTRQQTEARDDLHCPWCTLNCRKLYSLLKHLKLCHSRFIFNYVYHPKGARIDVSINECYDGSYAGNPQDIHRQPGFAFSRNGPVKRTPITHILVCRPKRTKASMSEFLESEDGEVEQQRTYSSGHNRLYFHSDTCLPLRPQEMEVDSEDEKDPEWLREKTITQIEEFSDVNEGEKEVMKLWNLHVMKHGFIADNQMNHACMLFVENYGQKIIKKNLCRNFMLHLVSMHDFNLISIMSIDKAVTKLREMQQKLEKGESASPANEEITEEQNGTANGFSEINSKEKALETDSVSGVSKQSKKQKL

Molecule: CCOC(=O)CCNc1cc(N2CCc3ccccc3CC2)nc(-c2ccccn2)n1 [GSKJ4]
- recruitment of GATA3 to nascent DNA [1]: inhibition
- recruitment of the TF C/EBPa [2]: strongly inhibited
- accumulation of H3K27me3 following DNA replication [3]: strongly increased
- recruitment of the TF PU.1 [4]: strongly inhibited
- recruitment of the TF GATA-1 [5]: strongly inhibited
- recruitment of T-bet to nascent DNA [6]: inhibition

Molecule: O=C(NC1CC1)c1cc(-c2cccs2)on1 [ISX-9]
- inhibition of cell viability of TCL cells [7]: effective
- inhibition of cell viability of AML cell lines [8]: induced inhibition of cell viability in all AML cell lines
- binding of activated MEF2 to nascent chromatin [9]: occurs only following de-condensation of chromatin by EPZ
- THP-1 cell growth / outgrowth (bioluminescence fold-changes) vs untreated control animals [10]: little effect
- efficiency as reprogramming agent across leukemias [11]: efficient in all tested leukemias

Molecule: arsenic trioxide [ATO]
- terminal differentiation of cells [12]: around 90%

Molecule: C[C@]12C=CC(=O)C=C1CC[C@@H]1[C@@H]2C(=O)C[C@@]2(C)[C@H]1CC[C@]2(O)C(=O)CO [Prednisone]
- level of H3K27me3 on 15 min-labeled nascent DNA ([13]; HUT78 cells, 0.2 μM, through 10 hr of induction): remained unchanged
- expression of differentiation-associated genes vs untreated cells [14]: no statistical difference

Molecule: CC[C@H](C)n1cc(C)c2c(C(=O)NCc3c(C)cc(C)[nH]c3=O)cc(-c3ccc(N4CCNCC4)nc3)cc21 [GSK126]
- levels of global and nascent chromatin marked with H3K27me3 ([13]; 24 hr, 0.5-1 μM range, tested by CAA): marked decrease

Molecule: Nc1nccc2c1ncn2[C@@H]1C=C(CO)[C@@H](O)[C@H]1O [DZNep, 3-deazaneplanocin A]
- specificity to EZH2 [15]: not specific to EZH2

Molecule: CC1=C(/C=C/C(C)=C/C=C/C(C)=C/C(=O)O)C(C)(C)CCC1 [ATRA, all-trans retinoic acid]
- terminal differentiation of cells [12]: around 90%

Molecule: O=C(O)Cc1cccc(OCCCN(Cc2cccc(C(F)(F)F)c2Cl)CC(c2ccccc2)c2ccccc2)c1 [GW3965]
- binding of LXRa to DNA, ligand alone [16]: not able to bind to DNA
- localisation of LXRa after induction with ligand [17]: exclusively nuclear
